# Experimental data published in patent US20090318468A1, “PYRAZOLE COMPOUNDS 436” (AstraZeneca AB, priority 2008, published 2009).
# Several values for one entry are separate records, joined by “and”; a condition that tells them apart may be missing. Identical values can stand only once.
# How the values were obtained:
# FGFR4 [1] = molecular target: T1, FGFR4 (Homo sapiens, UniProt P22455); assay: Cell FGFR4 (ECHO) Assay: inhibition of transiently expressed FGFR4 phosphorylation in Cos-1 cells; assay type: cell-based; parameters: expressed in transfected cells; host or cells: Cos-1; conditions: Cos-1 cells transiently expressing FGFR4, 1 hour incubation; read-out: IC50 (inhibition of phosphorylated FGFR4)
# Excerpt: Cell based inhibition of transiently expressed FGFR4 phosphorylation via use of ECHO technology (measured using phospho-specific primary and fluorescent secondary antibodies).
# This assay is designed to detect inhibitors of transiently expressed FGFR4 phosphorylation by antibody staining of fixed cells detected using ArrayScan technology. Cos-1 cells were routinely passaged in DMEM (Gibco BRL, 41966) plus 3% foetal calf serum (FCS), 1% L-glutamine (Gibco BRL, 25030) to a confluence of 80%. To undertake the assay, Cos-1 cells were harvested at 90-95% confluence for cell transfection. For each 96-well plate, 24 μL Lipofectamine 2000 was added to 809 μL OptiMEM and incubated at room temperature for 5 minutes. For each 96 well plate, 20 μg 3′ FLAG tagged FGFR4/pcDNA3.1 (MSD 6273) was diluted with OptiMEM to a total volume of 833 μL. Equal volumes of DNA and Lipofectamine 2000 were combined (DNA:Lipid=1:1.2 ratio) and incubated at room temperature for 20 minutes.
# The harvested Cos-1 cells are counted using a coulter counter and diluted further with 1% FCS/DMEM to 1.2×10^5 cells/mL. For each 96-well, 8.33 mL cells were required. […]
# Media was removed from the wells using vacuum aspiration; cells were fixed by adding 50 μL of 100% methanol to each well and incubated at room temperature for 20 minutes. […] The plates were read on an Arrayscan (Cellomics). […]
# FGFR4 [2] = molecular target: T1, FGFR4; assay: FGFR4 Kinase Assay - Caliper; assay type: biochemical; conditions: 30 μM ATP, separate test occasions listed, read-out: IC50 (inhibition of FGFR4 kinase activity)
# Description: FGFR4 Kinase Assay—Caliper
# To determine inhibition of FGFR4 activity, kinase assays were conducted using Caliper technology. FGFR4 enzyme was used (8 μM, Cat. No. PR4380B, Invitrogen). Kinase activity assays were performed in Greiner 384-well low volume plates, with a total reaction volume of 12 μL per well. The final concentration of FGFR4 active kinase in each reaction well was 25 nM. The substrate for each assay was a custom peptide with fluorescent tag (13 amino acids in length, 5FAM-[…]—CONH2) the sequence of which was specific for FGFR4 kinase.
# Compounds were serially diluted in 5% (v/v) DMSO, before being added to assay plates. The Enzyme (at 25 nM (final)) and Substrate (at 1.5 μM (final)) were added separately to the compound plates, in reaction buffer (comprising: 100 mM HEPES—pH 7.5, 0.004% Triton, 1 mM DTT (final), 10 mM MnCl2 (final), 30 μM ATP (final)) resulting in a final DMSO concentration in the reaction mix of 0.8%.
# Assay plates were incubated at RT for 2 hours, before the reaction was stopped with the addition of buffer (comprising: 100 mM HEPES—pH7.5, 0.033% Brij-35, 0.22% Caliper Coating Reagent #3, 40 mM EDTA, 5% DMSO). Stopped assay plates were then read using the Caliper LabChip™ LC3000 (which uses microfludics to measure a shift in mobility between fluorescent labelled peptide and the FGFR4 kinase—phosphorylated form of this peptide). […]
# T1 sequence (P22455 22-802): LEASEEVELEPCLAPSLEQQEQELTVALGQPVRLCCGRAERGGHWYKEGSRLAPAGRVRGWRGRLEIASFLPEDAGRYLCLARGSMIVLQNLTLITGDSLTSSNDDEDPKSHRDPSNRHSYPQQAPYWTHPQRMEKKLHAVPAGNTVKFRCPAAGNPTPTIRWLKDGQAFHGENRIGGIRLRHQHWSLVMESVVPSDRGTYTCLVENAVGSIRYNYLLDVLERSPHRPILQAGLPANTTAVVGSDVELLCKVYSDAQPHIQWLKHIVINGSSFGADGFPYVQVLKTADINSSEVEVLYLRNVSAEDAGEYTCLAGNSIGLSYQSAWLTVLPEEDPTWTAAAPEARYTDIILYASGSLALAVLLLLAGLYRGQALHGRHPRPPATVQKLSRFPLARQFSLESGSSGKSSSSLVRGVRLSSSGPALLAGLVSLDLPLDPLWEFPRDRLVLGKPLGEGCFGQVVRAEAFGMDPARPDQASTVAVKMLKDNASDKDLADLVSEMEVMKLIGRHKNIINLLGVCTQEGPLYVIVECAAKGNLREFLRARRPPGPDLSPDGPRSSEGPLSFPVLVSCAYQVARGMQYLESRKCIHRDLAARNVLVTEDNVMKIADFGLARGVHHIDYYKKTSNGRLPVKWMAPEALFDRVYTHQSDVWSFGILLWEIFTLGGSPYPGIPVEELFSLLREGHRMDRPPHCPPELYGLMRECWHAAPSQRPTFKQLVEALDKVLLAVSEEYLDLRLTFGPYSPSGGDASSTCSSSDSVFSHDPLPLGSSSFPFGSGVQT
smiles,measurement,setting,value
"COc1cc(CCc2cc(NC(=O)c3ccc(N4CCN(C)[C@H](C)C4)cc3)[nH]n2)cc(OC)c1 [Example 1b, (R)—N-(3-(3,5-Dimethoxyphenethyl)-1H-pyrazol-5-yl)-4-(3,4-dimethylpiperazin-1-yl)benzamide]",IC50,FGFR4 [1],29 nM and 33 nM and 45 nM and 28 nM
same,IC50,FGFR4 [2],22 nM and 16 nM (2×)
